According to US9381191B2, “Imidazopyridine derivatives useful in treating diabetes” (METABRAIN RESEARCH, priority 2012, dated 2016):

Assays:
[1] = tested on: INS-1 cells; assay: Stimulation test of insulin secretion by INS-1 cells; type: cell-based; details: Rattus norvegicus, INS1, 1 h, insulin secretion by INS-1 cells in response to glucose; for insulin secretion, % of control at 10 µM: read-out: HGP % of ctrl @ 10 μM; for insulin secretion, % of control at 50 µM: read-out: HGP % of ctrl @ 50 μM
Experimental: The different compounds were tested on an INS-1 beta-pancreatic line in order to evaluate their capability of potentializing the insulin secretion in response to glucose. Very briefly, the cells are cultivated in a culture medium, RPMI 1640 with 10 mM glucose containing 1 mM of sodium pyruvate, 50 μM of 2-mercaptoethanol, 2 mM of glutamine, 10 mM of HEPES, 100 IU/ml of penicillin, 100 μg/ml of streptomycin and 10% of inactivated fetal calf serum, as described by Asfari et al.. For the insulin secretion test, the INS-1 cells are sown and cultivated in 96-well plates. After 3 days of cultivation at 37° C. in a humid atmosphere (95% air/5% CO2), the medium is removed and the cells are incubated for 16 h in a medium containing 5 mM of glucose and 1% of inactivated fetal calf serum. On the day of the test, the cells are washed with a Krebs buffer (pH 7.4) containing 0.1% of bovine albumin and then pre-incubated for 30 min at 37° C. in this same buffer containing 2.8 mM of glucose. Finally, the cells are again washed with Krebs buffer and then incubated for 1 h in the buffer of the secretion test (Krebs, pH 7.4 containing 0.1% of bovine albumin and 3.5 mM of glucose and molecules to be evaluated). At the end of the test, the cell supernatant is recovered in order to measure therein the secreted insulin, by means of an ELISA kit using a rat anti-insulin antibody (ELISA Alpco Cat no. 80-INSRTH-E10). Each condition is tested in triplicate. The 3.5 mM glucose, the 10^−7M GLP-1 and the Forskoline 10^−7/IBMX 10^−5M mixtures are used as positive controls of the test. A compound stimulates the secretion of insulin if this factor is greater than or equal to 130% of the control for a given glucose dose.

[2] = tested on: isolated rat hepatocytes; assay: Hepatic production of glucose, 20 h incubation; type: cell-based, Wistar rat; details: for HGP % of ctrl @ 50 μM / HGP % of ctrl @ 100 μM: rat hepatocytes
Experimental: (§1) The hepatocytes are isolated from Wistar rat liver having fasted for 24 h after perfusion of collagenase in the portal vein. 1) The freshly isolated hepatocytes are sown in 6-well plates coated with collagen and containing an adhesion medium (Williams Medium). After adhesion, the medium is replaced with RPMI 1640 medium without any glucose, containing hydrocortisone (7·10^−5M) for a duration from 16 to 18 h. The next day, the glucose hepatic production test is conducted in a Krebs medium for 3 h. The basal conditions are cells incubated with only Krebs, the stimulated conditions are the cells placed in Krebs+lactate+pyruvate, the produced conditions are the cells exposed to chemical compounds in a Krebs/lactate/pyruvate medium. In the case when the compounds are dissolved in DMSO, all the conditions of the tests are met in the presence of a final concentration of 0.1% DMSO. The positive control of the test is the mercaptopicolinate known for its inhibitory action on hepatic production of glucose via the phosphoenolpyruvate carboxykinase. For short term treatments, the compounds are incubated for 3 h. For long term treatments, the compounds are incubated for 20 h at the moment when the hepatocytes are cultivated in RPMI and then added during the hepatic production test for 3 h. At the end of the 3 hours of incubation, the supernatant is recovered for measurement of glucose with a colorimetric method using glucose oxidase. The cells are lysed with a 0.1% NaOH aqueous solution in order to measure the amount of protein with the Lowry method. The results are expressed in mmol of glucose per mg of protein.

[3] = tested on: isolated perfused pancreases of N0STZ diabetic rats; assay: Insulin secretion in response to glucose at isolated perfused pancreases of N0STZ diabetic rats; set-up: species or system rat; details: glucose 16.5 mM, control group 560 ± 71
Experimental: The pancreas was taken on rats made to be diabetic by injection of Streptozotocin on the day of birth and anaesthetized with Pentobarbital (Nembutal©: 45 mg/kg; intraperitoneal route). These rats have a specific deficiency of the insulin response to glucose, as observed in humans with diabetes of type II. The isolation and the perfusion of the pancreas were achieved according to a modification of the procedure described by Sussman et al.. The effect of the compounds or reference substances is tested for 35 minutes (from t=20 min to t=55 min) in Krebs buffer, and then 20 minutes (from t=55 min to t=75 min) in the presence of glucose 16.5 mM. The concentration of insulin secreted into the medium is measured by an Elisa assay (ELISA Alpco Cat no. 80-INSRTH-E10). The results are expressed as an average +/−SEM (Standard Error of the Mean) of several experiments.

[4] = tested on: isolated rat hepatocytes; assay: Hepatic production of glucose, 3 h incubation; type: cell-based, Wistar rat; details: for activity at 50 µM / activity at 100 µM: Hepatocyte, rat hepatocytes; for activity at 50 µM: read-out: HGP % of ctrl @ 50 μM; for activity at 100 µM: read-out: HGP % of ctrl @ 100 μM
Experimental: as §1

[5] = tested on: GK rats; assay: Antidiabetic activity in GK (Goto-Kakisaki) rats; type: in vivo, rat; details: single oral dose 50 mg/kg
Experimental: The antidiabetic activity of compound 118 was evaluated in GK rats, a non-obese model of diabetes of type II. This model was obtained by cross-breeding of Wistar rats selected on the basis of a slight intolerance to glucose. These rats have the majority of dysfunctions observed in diabetes of type II in humans: hyperglycaemia, intolerance to glucose, insulin-resistance, and deteriorated insulin response to glucose. These animals were bred at Metabrain and were housed in an animal housing facility with a regulated temperature (22±2° C.) under constant humidity (50±20%) with a day/night cycle of 12 h (light from 7 h-19 h) and have access ad libitum to food and drink. The housing and experimentation conditions comply with the European directives relating to health and ethical treatment of laboratory animals (ETS123). In this study, the rats used are male 16-week old GK rats having fasted for 2 hours before beginning the study (postabsorptive condition). Monitoring of glycaemia is carried out on 2 groups of rats: One group treated with the compound 118 orally at the single dose of 50 mg/kg and a control group treated orally with the carrier. A blood sample was taken at T0 just before administration of the compound 118 or of the carrier and at times T1 h, T2 h, T4 h and T6 h after administration. The determination of glycaemia is achieved from a drop of blood taken from the tail measured with a glucometer Accu-Check Performa. The results shown below are expressed as a percentage of the decrease of glycaemia at T1 h, T2 h, T4 h and T6 h for the group treated with the compound 118 as compared with the control group

Structure (SMILES) | insulin secretion, % of control at 10 µM [1] | insulin secretion, % of control at 50 µM [1] | HGP % of ctrl @ 50 μM [2] | HGP % of ctrl @ 100 μM [2] | activity at 50 µM [4] | activity at 100 µM [4] | further results
CCOC(=O)COCc1nc2ccccn2c1C#Cc1cccc(OC)c1 [Derivative 12, ethyl 2-((3-((3-methoxyphenyl)-ethynyl)imidazo[1,2-a]pyridin-2-yl)methoxy)acetate] | 123% | 204% | 89 % of ctrl | 54 % of ctrl | – | – | –
O=C(O)COCc1nc2ccccn2c1C#Cc1ccc(F)cc1 [Derivative 44, 2-((3-((4-fluorophenyl)ethynyl)-imidazo[1,2-a]pyridin-2-yl)methoxy)acetic acid] | – | – | – | – | – | – | Insulin secretion peak at G16.5 mM, Tested product ([3]; tested concentration 10 μM): 1 724 μU/min.
O=C([O-])COCc1nc2ccccn2c1C#Cc1ccc(F)cc1.[Na+] [Derivative 46, sodium 2-((3-((4-fluorophenyl)-ethynyl)imidazo[1,2-a]pyridin-2-yl)methoxy)acetate] | – | – | 93 % of ctrl | 52 % of ctrl | 85% | 69% | –
CC(C)OC(=O)COCc1nc2ccccn2c1C#Cc1ccc(F)cc1 [Derivative 54, isopropyl 2-((3-((4-fluorophenyl)ethynyl)imidazo [1,2-a]pyridin-2-yl)methoxy) acetate] | 203% | – | 64 % of ctrl | 44 % of ctrl | – | – | Insulin secretion peak at G16.5 mM, Tested product ([3]; tested concentration 1 μM): 961 ± 130 μU/min.; Insulin secretion peak at G16.5 mM, Tested product ([3]; tested concentration 10 μM): 1 637 μU/min.
CCONC(=O)COCc1nc2ccccn2c1C#Cc1ccc(F)cc1 [Derivative 58, N-ethoxy-2-((3-((4-fluorophenyl)ethynyl)imidazo [1,2-a]pyridin-2-yl)methoxy) acetamide] | 127% | 233% | 32 % of ctrl | 17 % of ctrl | – | – | inhibition of hepatic production of glucose [2]: strongest inhibitions
O=C([O-])c1ccccc1OCc1nc2ccccn2c1C#Cc1ccccc1.[Na+] [Derivative 92, sodium 2-((3-(phenylethynyl)imidazo-[1,2-a]pyridin-2-yl)methoxy)-benzoate] | 135% | 211% | – | – | 58% | 39% | inhibition of hepatic production of glucose ([4]; with two doses): strongest inhibitions
CCOC(=O)CSCc1nc2ccc(Cl)cn2c1C#Cc1ccc(F)cc1 [Derivative 110, ethyl 2-[[6-chloro-3-[2-[4-(fluoro)-phenyl]ethynyl]imidazo[1,2-a]pyridin-2-yl]methylsulfanyl]acetate] | 162% | 140% | – | – | 50% | 37% | inhibition of hepatic production of glucose ([4]; with two doses): strongest inhibitions
CCOC(=O)CSCc1nc2ccc(Cl)cn2c1C#Cc1cccc(C(F)(F)F)c1 [Derivative 111, ethyl 2-[[6-chloro-3-[2-[3-(trifluoro-methyl)phenyl]ethynyl]imidazo [1,2-a]pyridin-2-yl]methylsulfanyl]acetate] | 136% | 173% | – | – | 73% | 27% | inhibition of hepatic production of glucose ([4]; dose of 100 μM): strongest inhibitions
CCOC(=O)CSCc1nc2ccc(Cl)cn2c1C#Cc1cccc(OC(F)(F)F)c1 [Derivative 112, ethyl 2-[[6-chloro-3-[2-[3-(trifluoromethoxy)phenyl]ethynyl]imidazo[1,2-a]pyridin-2-yl]methylsulfanyl]acetate] | 150% | 256% | – | – | 65% | 26% | inhibition of hepatic production of glucose ([4]; dose of 100 μM): strongest inhibitions
O=C(O)CSCc1nc2ccc(Cl)cn2c1C#Cc1ccc(F)cc1 [Derivative 117, 2-[[6-chloro-3-[2-(4-fluorophenyl)ethynyl]imidazo [1,2-a]pyridin-2-yl]methylsulfanyl]acetic acid] | 130% | 137% | – | – | 55% | 43% | inhibition of hepatic production of glucose ([4]; with two doses): strongest inhibitions
O=C(O)CSCc1nc2ccc(Cl)cn2c1C#Cc1cccc(C(F)(F)F)c1 [Derivative 118, 2-[[6-chloro-3-[2-[3-(trifluoro-methyl)-phenyl]ethynyl]imidazo[1,2-a]pyridin-2-yl]methylsulfanyl] acetic acid] | – | – | 57 % of ctrl | – | – | – | % of activity on glycemia ([5]; T1 h after administration, p = 0.0242): −14%; % of activity on glycemia ([5]; T2 h after administration, p = 0.0171): −15%; % of activity on glycemia ([5]; T4 h after administration, p = 0.1468 NS): −10%; % of activity on glycemia ([5]; T6 h after administration, p = 0.2450 NS): −8%; reduction of hyperglycaemia [5]: capable of reducing hyperglycaemia
